The source of these data is patent US20190343907A1, “Synergistic Compositions and Methods of Achieving Homeostasis in Mammalian Systems” (priority 2017, published 2019).

Structures are written as SMILES.

The subject of assay [1] is migraine headaches. Put plainly: Case history: migraine headaches. The assay is classed as in vivo, human. The note with it: prescription, same subject. The text has this:
A person experienced stress-induced episodes of migraine headaches five to six times/year, each preceded by a “trigger signal” of slight dizziness or light-headedness. […] The lotion of Example 1 was supplied by the subject. […] No migraine episodes have occurred in the past eight months.

The subject of assay [2] is shingles. The experiment in a line: Case history: shingles. The settings on record: prescription taken, within 1 week. The assay is classed as in vivo, human. The text has this: A person was diagnosed with shingles on the lower jaw and on the scalp. […] The subject was given the lotion of Example 1 with instructions to pre-treat the area with a menthol cream five minutes before applying the treatment cream. Twice daily application to the border of the shingles lesions along the axis of red streaks prevented further expansion of the […] lesions. In areas of blisters that had not ruptured, application of the treatment cream caused the blisters to recede and not rupture. […] Episodes of recurring post-herpetic neuralgia were treated successfully over the next six weeks with the cream giving reduction of redness, itching and pain.

`CNS(=O)(=O)Cc1ccc2[nH]cc(CCN(C)C)c2c1` [Sumatriptan]: in assay [1], the migraine pain relief entry is “slow to relieve the pain”. Take `Nc1nc2c(ncn2COCCO)c(=O)[nH]1` [acyclovir]: in assay [2], the “relief from pain or itching” value is “no relief from pain or itching”.
